Patent US8598365B2, “Herbicides” (Syngenta Limited, priority 2007, dated 2013)

Test system: Alopecurus myosuroides (ALOMY)
Assay: Example B pre-emergence herbicidal activity
Format: in vivo
Conditions: 312 h, rate 250 g/ha, evaluated after 13 days, read-out: Pre-Emergence Activity ALOMY (100=total damage to plant; 0=no damage to plant)
Procedure: (§1) Seeds of a variety of test species were sown in standard soil in pots. After cultivation for one day (pre-emergence) or after 8 days cultivation (post-emergence) under controlled conditions in a glasshouse (at 24/16° C., day/night; 14 hours light; 65% humidity), the plants were sprayed with an aqueous spray solution derived from the formulation of the technical active ingredient in acetone/water (50:50) solution containing 0.5% Tween 20 (polyoxyethelyene sorbitan monolaurate, CAS RN 9005-64-5).
(§2) The test plants were then grown in a glasshouse under controlled conditions in a glasshouse (at 24/16° C., day/night; 14 hours light; 65% humidity) and watered twice daily. After 13 days for pre and post-emergence, the test was evaluated (100=total damage to plant; 0=no damage to plant).
(§3) Alopecurus myosuroides (ALOMY), Avena fatua (AVEFA), Setaria faberi (SETFA), Echinochloa crus-galli (ECHCG), Solanum nigrum (SOLNI) and Amaranthus retoflexus (AMARE)

| Compound | pest or weed control at 250 g/ha [%] |
| --- | --- |
| Cc1sc(-c2ccc(C#N)cc2)nc1C1C(=O)[C@@H]2CC[C@@H](C2)C1=O (stereo partly shown) [Compound T65] | 50 |
| O=C1C(c2nc(-c3ccc(Cl)cc3)sc2Br)C(=O)[C@H]2CC[C@@H]1C2 (stereo partly shown) [Compound T49] | 100 |
| CCc1sc(-c2ccc(Cl)c(F)c2)nc1C1C(=O)[C@@H]2CC[C@@H](C2)C1=O (stereo partly shown) [Compound T27] | 90 |
| CC(=O)OC1=C(c2nc(-c3ccc(Cl)cc3)ncc2C)C(=O)[C@H]2CC[C@@H]1C2 [Compound P18] | 20 |

Test system: Amaranthus retoflexus (AMARE)
Assay: Example B pre-emergence herbicidal activity
Format: in vivo
Conditions: Amaranthus retroflexus, 312 h, rate 250 g/ha, evaluated after 13 days, read-out: Pre-Emergence Activity AMARE (100=total damage to plant; 0=no damage to plant)
Procedure: as §1, §2, §3

| Compound | pest or weed control at 250 g/ha [%] |
| --- | --- |
| Cc1sc(-c2ccc(C#N)cc2)nc1C1C(=O)[C@@H]2CC[C@@H](C2)C1=O (stereo partly shown) [Compound T65] | 20 |
| O=C1C(c2nc(-c3ccc(Cl)cc3)sc2Br)C(=O)[C@H]2CC[C@@H]1C2 (stereo partly shown) [Compound T49] | 0 |
| CCc1sc(-c2ccc(Cl)c(F)c2)nc1C1C(=O)[C@@H]2CC[C@@H](C2)C1=O (stereo partly shown) [Compound T27] | 0 |
| CC(=O)OC1=C(c2nc(-c3ccc(Cl)cc3)ncc2C)C(=O)[C@H]2CC[C@@H]1C2 [Compound P18] | 0 |

Test system: Avena fatua (AVEFA)
Assay: Example B pre-emergence herbicidal activity
Format: in vivo
Conditions: 312 h, rate 250 g/ha, evaluated after 13 days, read-out: Pre-Emergence Activity AVEFA (100=total damage to plant; 0=no damage to plant)
Procedure: as §1, §2, §3

| Compound | pest or weed control at 250 g/ha [%] |
| --- | --- |
| Cc1sc(-c2ccc(C#N)cc2)nc1C1C(=O)[C@@H]2CC[C@@H](C2)C1=O (stereo partly shown) [Compound T65] | 20 |
| O=C1C(c2nc(-c3ccc(Cl)cc3)sc2Br)C(=O)[C@H]2CC[C@@H]1C2 (stereo partly shown) [Compound T49] | 100 |
| CCc1sc(-c2ccc(Cl)c(F)c2)nc1C1C(=O)[C@@H]2CC[C@@H](C2)C1=O (stereo partly shown) [Compound T27] | 90 |
| CC(=O)OC1=C(c2nc(-c3ccc(Cl)cc3)ncc2C)C(=O)[C@H]2CC[C@@H]1C2 [Compound P18] | 0 |

Test system: Echinochloa crus-galli (ECHCG)
Assay: Example B pre-emergence herbicidal activity
Format: in vivo
Conditions: 312 h, rate 250 g/ha, evaluated after 13 days, read-out: Pre-Emergence Activity ECHCG (100=total damage to plant; 0=no damage to plant)
Procedure: as §1, §2, §3

| Compound | pest or weed control at 250 g/ha [%] |
| --- | --- |
| Cc1sc(-c2ccc(C#N)cc2)nc1C1C(=O)[C@@H]2CC[C@@H](C2)C1=O (stereo partly shown) [Compound T65] | 100 |
| O=C1C(c2nc(-c3ccc(Cl)cc3)sc2Br)C(=O)[C@H]2CC[C@@H]1C2 (stereo partly shown) [Compound T49] | 100 |
| CCc1sc(-c2ccc(Cl)c(F)c2)nc1C1C(=O)[C@@H]2CC[C@@H](C2)C1=O (stereo partly shown) [Compound T27] | 100 |
| CC(=O)OC1=C(c2nc(-c3ccc(Cl)cc3)ncc2C)C(=O)[C@H]2CC[C@@H]1C2 [Compound P18] | 70 |

Test system: Setaria faberi (SETFA)
Assay: Example B pre-emergence herbicidal activity
Format: in vivo
Conditions: 312 h, rate 250 g/ha, evaluated after 13 days, read-out: Pre-Emergence Activity SETFA (100=total damage to plant; 0=no damage to plant)
Procedure: as §1, §2, §3

| Compound | pest or weed control at 250 g/ha [%] |
| --- | --- |
| Cc1sc(-c2ccc(C#N)cc2)nc1C1C(=O)[C@@H]2CC[C@@H](C2)C1=O (stereo partly shown) [Compound T65] | 100 |
| O=C1C(c2nc(-c3ccc(Cl)cc3)sc2Br)C(=O)[C@H]2CC[C@@H]1C2 (stereo partly shown) [Compound T49] | 100 |
| CCc1sc(-c2ccc(Cl)c(F)c2)nc1C1C(=O)[C@@H]2CC[C@@H](C2)C1=O (stereo partly shown) [Compound T27] | 100 |
| CC(=O)OC1=C(c2nc(-c3ccc(Cl)cc3)ncc2C)C(=O)[C@H]2CC[C@@H]1C2 [Compound P18] | 60 |

Test system: Alopecurus myosuroides (ALOMY)
Assay: Example B post-emergence herbicidal activity
Format: in vivo
Conditions: 312 h, rate 250 g/ha, evaluated after 13 days, read-out: Post-emergence activity ALOMY (100=total damage to plant; 0=no damage to plant)
Procedure: as §1, §2, §3

| Compound | pest or weed control at 250 g/ha [%] |
| --- | --- |
| Cc1sc(-c2ccc(C#N)cc2)nc1C1C(=O)[C@@H]2CC[C@@H](C2)C1=O (stereo partly shown) [Compound T65] | 50 |
| O=C1C(c2nc(-c3ccc(Cl)cc3)sc2Br)C(=O)[C@H]2CC[C@@H]1C2 (stereo partly shown) [Compound T49] | 90 |
| CCc1sc(-c2ccc(Cl)c(F)c2)nc1C1C(=O)[C@@H]2CC[C@@H](C2)C1=O (stereo partly shown) [Compound T27] | 100 |
| CC(=O)OC1=C(c2nc(-c3ccc(Cl)cc3)ncc2C)C(=O)[C@H]2CC[C@@H]1C2 [Compound P18] | 10 |

Test system: Amaranthus retoflexus (AMARE)
Assay: Example B post-emergence herbicidal activity
Format: in vivo
Conditions: Amaranthus retroflexus, 312 h, rate 250 g/ha, evaluated after 13 days, read-out: Post-emergence activity AMARE (100=total damage to plant; 0=no damage to plant)
Procedure: as §1, §2, §3

| Compound | pest or weed control at 250 g/ha [%] |
| --- | --- |
| Cc1sc(-c2ccc(C#N)cc2)nc1C1C(=O)[C@@H]2CC[C@@H](C2)C1=O (stereo partly shown) [Compound T65] | 70 |
| O=C1C(c2nc(-c3ccc(Cl)cc3)sc2Br)C(=O)[C@H]2CC[C@@H]1C2 (stereo partly shown) [Compound T49] | 0 |
| CCc1sc(-c2ccc(Cl)c(F)c2)nc1C1C(=O)[C@@H]2CC[C@@H](C2)C1=O (stereo partly shown) [Compound T27] | 0 |
| CC(=O)OC1=C(c2nc(-c3ccc(Cl)cc3)ncc2C)C(=O)[C@H]2CC[C@@H]1C2 [Compound P18] | 40 |

Test system: Avena fatua (AVEFA)
Assay: Example B post-emergence herbicidal activity
Format: in vivo
Conditions: 312 h, rate 250 g/ha, evaluated after 13 days, read-out: Post-emergence activity AVEFA (100=total damage to plant; 0=no damage to plant)
Procedure: as §1, §2, §3

| Compound | pest or weed control at 250 g/ha [%] |
| --- | --- |
| Cc1sc(-c2ccc(C#N)cc2)nc1C1C(=O)[C@@H]2CC[C@@H](C2)C1=O (stereo partly shown) [Compound T65] | 70 |
| O=C1C(c2nc(-c3ccc(Cl)cc3)sc2Br)C(=O)[C@H]2CC[C@@H]1C2 (stereo partly shown) [Compound T49] | 90 |
| CCc1sc(-c2ccc(Cl)c(F)c2)nc1C1C(=O)[C@@H]2CC[C@@H](C2)C1=O (stereo partly shown) [Compound T27] | 100 |
| CC(=O)OC1=C(c2nc(-c3ccc(Cl)cc3)ncc2C)C(=O)[C@H]2CC[C@@H]1C2 [Compound P18] | 0 |

Test system: Echinochloa crus-galli (ECHCG)
Assay: Example B post-emergence herbicidal activity
Format: in vivo
Conditions: 312 h, rate 250 g/ha, evaluated after 13 days, read-out: Post-emergence activity ECHCG (100=total damage to plant; 0=no damage to plant)
Procedure: as §1, §2, §3

| Compound | pest or weed control at 250 g/ha [%] |
| --- | --- |
| Cc1sc(-c2ccc(C#N)cc2)nc1C1C(=O)[C@@H]2CC[C@@H](C2)C1=O (stereo partly shown) [Compound T65] | 100 |
| O=C1C(c2nc(-c3ccc(Cl)cc3)sc2Br)C(=O)[C@H]2CC[C@@H]1C2 (stereo partly shown) [Compound T49] | 100 |
| CCc1sc(-c2ccc(Cl)c(F)c2)nc1C1C(=O)[C@@H]2CC[C@@H](C2)C1=O (stereo partly shown) [Compound T27] | 100 |
| CC(=O)OC1=C(c2nc(-c3ccc(Cl)cc3)ncc2C)C(=O)[C@H]2CC[C@@H]1C2 [Compound P18] | 80 |

Test system: Setaria faberi (SETFA)
Assay: Example B post-emergence herbicidal activity
Format: in vivo
Conditions: 312 h, rate 250 g/ha, evaluated after 13 days, read-out: Post-emergence activity SETFA (100=total damage to plant; 0=no damage to plant)
Procedure: as §1, §2, §3

| Compound | pest or weed control at 250 g/ha [%] |
| --- | --- |
| Cc1sc(-c2ccc(C#N)cc2)nc1C1C(=O)[C@@H]2CC[C@@H](C2)C1=O (stereo partly shown) [Compound T65] | 100 |
| O=C1C(c2nc(-c3ccc(Cl)cc3)sc2Br)C(=O)[C@H]2CC[C@@H]1C2 (stereo partly shown) [Compound T49] | 100 |
| CCc1sc(-c2ccc(Cl)c(F)c2)nc1C1C(=O)[C@@H]2CC[C@@H](C2)C1=O (stereo partly shown) [Compound T27] | 100 |
| CC(=O)OC1=C(c2nc(-c3ccc(Cl)cc3)ncc2C)C(=O)[C@H]2CC[C@@H]1C2 [Compound P18] | 90 |
